Test results from ChEMBL document CHEMBL5058646 (2022).

Key:
[1] = target: 5-hydroxytryptamine receptor 1B (Homo sapiens) (UniProt P28222); conditions: Compound concentration 10.0 uM
[2] = target: Ephrin type-A receptor 7 (Homo sapiens) (UniProt Q15375); test: EPHA7 SGC Tm panel (DSF); conditions: Compound concentration 20.0 uM
[3] = target: T1, Zinc finger and BTB domain-containing protein 40 (Homo sapiens) (UniProt Q9NUA8); conditions: SUD4, Compound concentration 1.0 uM
T1 sequence (whole entry): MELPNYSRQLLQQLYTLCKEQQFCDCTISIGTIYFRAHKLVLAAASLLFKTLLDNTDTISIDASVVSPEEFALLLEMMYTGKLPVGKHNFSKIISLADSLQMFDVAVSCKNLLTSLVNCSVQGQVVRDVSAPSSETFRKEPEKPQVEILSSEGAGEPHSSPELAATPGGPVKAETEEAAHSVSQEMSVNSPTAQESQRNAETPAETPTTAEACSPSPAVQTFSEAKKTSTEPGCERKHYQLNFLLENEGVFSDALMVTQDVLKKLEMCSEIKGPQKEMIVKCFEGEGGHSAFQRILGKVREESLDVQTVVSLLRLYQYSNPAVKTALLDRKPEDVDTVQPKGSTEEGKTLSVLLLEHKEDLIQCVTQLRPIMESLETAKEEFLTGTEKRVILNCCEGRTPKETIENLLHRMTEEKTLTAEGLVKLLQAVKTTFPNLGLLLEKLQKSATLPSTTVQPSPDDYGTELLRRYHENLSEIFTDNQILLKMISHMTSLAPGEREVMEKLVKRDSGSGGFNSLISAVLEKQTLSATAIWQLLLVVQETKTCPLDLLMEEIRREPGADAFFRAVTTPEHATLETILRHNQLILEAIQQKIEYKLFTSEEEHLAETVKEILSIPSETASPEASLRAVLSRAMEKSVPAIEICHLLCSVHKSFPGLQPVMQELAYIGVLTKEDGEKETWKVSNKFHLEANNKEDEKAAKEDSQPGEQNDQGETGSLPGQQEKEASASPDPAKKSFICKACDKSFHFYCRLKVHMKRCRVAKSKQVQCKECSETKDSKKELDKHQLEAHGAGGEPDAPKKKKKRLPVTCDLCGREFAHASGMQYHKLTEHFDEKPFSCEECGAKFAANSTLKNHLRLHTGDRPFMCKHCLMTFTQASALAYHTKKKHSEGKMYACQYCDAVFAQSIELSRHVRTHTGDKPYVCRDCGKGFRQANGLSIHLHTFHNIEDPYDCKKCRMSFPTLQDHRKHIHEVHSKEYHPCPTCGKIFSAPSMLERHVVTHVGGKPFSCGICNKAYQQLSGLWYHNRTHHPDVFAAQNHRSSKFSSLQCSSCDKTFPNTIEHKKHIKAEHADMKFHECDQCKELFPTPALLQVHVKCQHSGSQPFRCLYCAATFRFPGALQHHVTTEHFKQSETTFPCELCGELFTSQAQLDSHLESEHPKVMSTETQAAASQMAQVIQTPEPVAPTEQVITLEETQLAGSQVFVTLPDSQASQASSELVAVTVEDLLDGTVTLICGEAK

[4] = target: Histamine H1 receptor (Homo sapiens) (UniProt P35367); conditions: Compound concentration 10.0 uM
[5] = GPCRScan assay: inhibition of GABA/PBR; parameters: species or system Rattus norvegicus; radioligand conc. used [nm] 0.3 – 2.0, parental cells brain tissue
[6] = target: T2, Zinc finger and BTB domain-containing protein 9 (Homo sapiens) (UniProt Q96C00); conditions: SUD4, Compound concentration 1.0 uM
T2 sequence (whole entry): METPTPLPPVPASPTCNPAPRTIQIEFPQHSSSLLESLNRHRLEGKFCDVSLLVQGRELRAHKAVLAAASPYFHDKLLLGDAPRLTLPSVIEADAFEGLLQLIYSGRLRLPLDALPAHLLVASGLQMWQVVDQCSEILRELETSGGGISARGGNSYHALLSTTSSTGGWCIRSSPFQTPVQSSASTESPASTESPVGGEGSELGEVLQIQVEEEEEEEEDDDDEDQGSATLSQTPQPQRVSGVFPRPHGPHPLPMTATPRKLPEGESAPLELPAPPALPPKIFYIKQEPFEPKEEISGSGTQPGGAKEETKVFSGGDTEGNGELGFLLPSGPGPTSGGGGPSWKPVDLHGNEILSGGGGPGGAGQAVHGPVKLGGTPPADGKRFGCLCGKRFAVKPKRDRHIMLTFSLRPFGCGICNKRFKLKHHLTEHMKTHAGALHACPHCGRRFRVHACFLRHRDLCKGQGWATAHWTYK

[7] = target: Dual specificity tyrosine-phosphorylation-regulated kinase 1A (Homo sapiens) (UniProt Q13627); test: DYRK1A SGC Tm panel (DSF); conditions: Compound concentration 20.0 uM
[8] = target: Dual specificity protein kinase CLK1 (Homo sapiens) (UniProt P49759); test: CLK1 SGC Tm panel (DSF); conditions: Compound concentration 20.0 uM
[9] = target: Transcription intermediary factor 1-alpha (Homo sapiens) (UniProt O15164); test: TIF1 SGC Tm panel (DSF); conditions: Compound concentration 20.0 uM
Peregrin (Homo sapiens) = Peregrin (Homo sapiens) (UniProt P55201); test: BRPF1 SGC Tm panel (DSF); conditions: Compound concentration 20.0 uM
[10] = target: T3, Zinc finger protein 131 (Homo sapiens) (UniProt P52739); conditions: OCI-Ly1, Compound concentration 1.0 uM
T3 sequence (whole entry): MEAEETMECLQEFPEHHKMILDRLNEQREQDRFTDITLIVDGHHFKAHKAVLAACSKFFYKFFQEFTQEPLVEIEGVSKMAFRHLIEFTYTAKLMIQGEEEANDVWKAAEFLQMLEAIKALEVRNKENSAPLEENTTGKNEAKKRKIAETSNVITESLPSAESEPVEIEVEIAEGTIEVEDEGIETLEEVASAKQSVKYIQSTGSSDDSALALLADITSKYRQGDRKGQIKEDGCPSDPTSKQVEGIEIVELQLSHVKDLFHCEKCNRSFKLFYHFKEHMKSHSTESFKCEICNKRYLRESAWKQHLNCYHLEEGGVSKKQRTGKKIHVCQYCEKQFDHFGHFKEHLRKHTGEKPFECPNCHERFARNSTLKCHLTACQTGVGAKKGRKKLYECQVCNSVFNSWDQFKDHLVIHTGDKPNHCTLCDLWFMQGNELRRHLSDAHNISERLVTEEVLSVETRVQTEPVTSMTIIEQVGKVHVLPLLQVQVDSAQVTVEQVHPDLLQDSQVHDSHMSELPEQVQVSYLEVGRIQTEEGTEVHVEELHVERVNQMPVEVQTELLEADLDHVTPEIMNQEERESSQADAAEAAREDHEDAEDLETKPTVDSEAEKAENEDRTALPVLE

[11] = target: T3, Zinc finger protein 131 (Homo sapiens); conditions: SUD4, Compound concentration 1.0 uM
[12] = target: Serine/threonine-protein kinase Nek1 (Homo sapiens) (UniProt Q96PY6); test: NEK1 SGC Tm panel (DSF); conditions: Compound concentration 20.0 uM
Chain of Serine/threonine-protein kinase Nek1 (Homo sapiens) (Q96PY6 whole entry): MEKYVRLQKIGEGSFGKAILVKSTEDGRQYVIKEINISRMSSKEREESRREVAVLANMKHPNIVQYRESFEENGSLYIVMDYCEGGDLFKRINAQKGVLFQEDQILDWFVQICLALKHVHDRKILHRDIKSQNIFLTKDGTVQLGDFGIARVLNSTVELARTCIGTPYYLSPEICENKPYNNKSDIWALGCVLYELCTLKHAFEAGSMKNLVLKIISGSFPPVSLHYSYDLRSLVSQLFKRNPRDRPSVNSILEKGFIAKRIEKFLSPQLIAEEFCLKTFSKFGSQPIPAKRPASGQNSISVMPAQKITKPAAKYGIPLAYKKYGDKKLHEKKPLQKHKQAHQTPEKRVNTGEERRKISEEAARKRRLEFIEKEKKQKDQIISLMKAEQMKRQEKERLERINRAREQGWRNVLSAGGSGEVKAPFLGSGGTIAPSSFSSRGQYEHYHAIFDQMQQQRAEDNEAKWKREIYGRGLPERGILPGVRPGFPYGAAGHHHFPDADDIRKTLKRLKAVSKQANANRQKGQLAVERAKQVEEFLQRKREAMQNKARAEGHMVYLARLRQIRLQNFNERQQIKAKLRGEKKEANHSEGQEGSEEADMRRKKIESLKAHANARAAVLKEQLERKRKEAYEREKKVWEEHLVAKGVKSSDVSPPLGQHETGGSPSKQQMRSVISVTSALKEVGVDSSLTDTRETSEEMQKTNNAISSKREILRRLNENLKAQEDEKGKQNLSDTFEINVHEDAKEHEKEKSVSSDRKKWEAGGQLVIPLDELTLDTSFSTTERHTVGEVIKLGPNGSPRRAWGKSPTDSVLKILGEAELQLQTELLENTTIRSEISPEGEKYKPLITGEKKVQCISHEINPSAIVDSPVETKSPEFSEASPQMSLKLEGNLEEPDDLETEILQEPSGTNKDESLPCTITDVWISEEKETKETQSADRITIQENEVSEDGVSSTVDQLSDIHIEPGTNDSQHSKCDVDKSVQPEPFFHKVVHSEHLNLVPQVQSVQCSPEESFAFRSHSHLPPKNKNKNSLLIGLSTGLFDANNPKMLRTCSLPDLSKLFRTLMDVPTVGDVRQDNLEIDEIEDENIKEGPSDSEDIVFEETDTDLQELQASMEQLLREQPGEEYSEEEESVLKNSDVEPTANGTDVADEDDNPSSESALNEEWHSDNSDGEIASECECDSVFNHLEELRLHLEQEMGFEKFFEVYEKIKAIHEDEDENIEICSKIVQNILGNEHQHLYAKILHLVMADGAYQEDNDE

Chain of Ephrin type-A receptor 7 (Homo sapiens) (Q15375 28-998 limits assumed): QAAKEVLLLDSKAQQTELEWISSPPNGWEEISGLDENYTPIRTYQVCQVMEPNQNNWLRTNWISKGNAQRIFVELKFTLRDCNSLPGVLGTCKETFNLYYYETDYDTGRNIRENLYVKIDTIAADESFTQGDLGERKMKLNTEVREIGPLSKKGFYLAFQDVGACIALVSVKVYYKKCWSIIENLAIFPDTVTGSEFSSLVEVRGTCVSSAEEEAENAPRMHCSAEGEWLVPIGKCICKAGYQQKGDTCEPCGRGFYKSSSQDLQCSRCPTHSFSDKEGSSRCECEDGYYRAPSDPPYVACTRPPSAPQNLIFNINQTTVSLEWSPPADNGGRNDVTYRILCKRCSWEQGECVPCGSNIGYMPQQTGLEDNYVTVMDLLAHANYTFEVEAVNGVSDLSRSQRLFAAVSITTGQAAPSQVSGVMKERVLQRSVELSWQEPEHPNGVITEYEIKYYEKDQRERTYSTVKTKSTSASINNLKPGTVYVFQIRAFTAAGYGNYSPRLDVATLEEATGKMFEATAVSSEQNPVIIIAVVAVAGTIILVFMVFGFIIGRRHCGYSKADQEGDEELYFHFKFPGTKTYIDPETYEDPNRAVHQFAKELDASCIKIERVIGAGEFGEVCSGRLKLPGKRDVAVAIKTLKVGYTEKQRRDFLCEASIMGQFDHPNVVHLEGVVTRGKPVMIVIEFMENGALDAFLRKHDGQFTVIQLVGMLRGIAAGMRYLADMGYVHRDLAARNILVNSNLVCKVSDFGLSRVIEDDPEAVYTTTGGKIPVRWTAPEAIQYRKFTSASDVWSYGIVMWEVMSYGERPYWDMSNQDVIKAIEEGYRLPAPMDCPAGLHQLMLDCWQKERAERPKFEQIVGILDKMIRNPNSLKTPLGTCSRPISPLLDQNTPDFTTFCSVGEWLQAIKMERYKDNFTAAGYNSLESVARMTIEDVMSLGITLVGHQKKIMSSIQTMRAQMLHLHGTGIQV
Chain of 5-hydroxytryptamine receptor 1B (Homo sapiens) (P28222 whole entry): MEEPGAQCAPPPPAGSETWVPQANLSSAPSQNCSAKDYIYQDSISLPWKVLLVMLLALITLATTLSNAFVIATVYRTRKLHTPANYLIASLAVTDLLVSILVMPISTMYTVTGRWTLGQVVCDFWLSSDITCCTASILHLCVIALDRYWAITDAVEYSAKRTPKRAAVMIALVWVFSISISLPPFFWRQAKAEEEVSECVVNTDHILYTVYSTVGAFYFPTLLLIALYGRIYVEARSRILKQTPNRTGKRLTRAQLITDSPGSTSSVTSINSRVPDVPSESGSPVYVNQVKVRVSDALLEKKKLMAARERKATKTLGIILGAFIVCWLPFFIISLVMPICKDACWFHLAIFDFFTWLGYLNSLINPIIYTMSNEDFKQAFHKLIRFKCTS
Chain of Dual specificity protein kinase CLK1 (Homo sapiens) (P49759 whole entry, looked up): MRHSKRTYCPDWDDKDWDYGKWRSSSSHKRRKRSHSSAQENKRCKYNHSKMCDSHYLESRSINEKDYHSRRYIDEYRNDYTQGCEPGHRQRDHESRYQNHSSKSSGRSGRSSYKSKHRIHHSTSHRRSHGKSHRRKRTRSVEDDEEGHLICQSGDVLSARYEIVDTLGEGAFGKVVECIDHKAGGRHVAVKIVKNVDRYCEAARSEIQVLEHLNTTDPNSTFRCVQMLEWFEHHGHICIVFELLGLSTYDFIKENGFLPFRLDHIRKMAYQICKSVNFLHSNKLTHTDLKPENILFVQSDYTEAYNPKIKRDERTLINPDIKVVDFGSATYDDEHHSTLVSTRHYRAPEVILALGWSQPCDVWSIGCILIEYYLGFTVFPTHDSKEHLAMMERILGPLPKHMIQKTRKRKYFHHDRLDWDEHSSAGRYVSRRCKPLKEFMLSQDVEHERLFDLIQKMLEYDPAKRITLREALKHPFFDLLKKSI
Chain of Histamine H1 receptor (Homo sapiens) (P35367 whole entry): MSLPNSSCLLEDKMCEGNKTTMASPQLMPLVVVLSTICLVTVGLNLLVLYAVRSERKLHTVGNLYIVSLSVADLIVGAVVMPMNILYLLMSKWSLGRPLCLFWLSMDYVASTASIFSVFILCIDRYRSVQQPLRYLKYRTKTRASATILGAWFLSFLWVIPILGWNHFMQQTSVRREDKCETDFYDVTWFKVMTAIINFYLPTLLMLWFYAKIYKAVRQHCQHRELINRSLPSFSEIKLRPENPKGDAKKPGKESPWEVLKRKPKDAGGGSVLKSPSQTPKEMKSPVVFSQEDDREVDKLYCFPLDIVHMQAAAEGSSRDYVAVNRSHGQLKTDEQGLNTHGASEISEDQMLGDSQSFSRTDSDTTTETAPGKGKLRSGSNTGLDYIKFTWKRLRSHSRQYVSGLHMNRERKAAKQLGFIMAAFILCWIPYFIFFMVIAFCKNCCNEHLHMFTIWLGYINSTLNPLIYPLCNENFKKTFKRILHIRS
Chain of Transcription intermediary factor 1-alpha (Homo sapiens) (O15164 whole entry): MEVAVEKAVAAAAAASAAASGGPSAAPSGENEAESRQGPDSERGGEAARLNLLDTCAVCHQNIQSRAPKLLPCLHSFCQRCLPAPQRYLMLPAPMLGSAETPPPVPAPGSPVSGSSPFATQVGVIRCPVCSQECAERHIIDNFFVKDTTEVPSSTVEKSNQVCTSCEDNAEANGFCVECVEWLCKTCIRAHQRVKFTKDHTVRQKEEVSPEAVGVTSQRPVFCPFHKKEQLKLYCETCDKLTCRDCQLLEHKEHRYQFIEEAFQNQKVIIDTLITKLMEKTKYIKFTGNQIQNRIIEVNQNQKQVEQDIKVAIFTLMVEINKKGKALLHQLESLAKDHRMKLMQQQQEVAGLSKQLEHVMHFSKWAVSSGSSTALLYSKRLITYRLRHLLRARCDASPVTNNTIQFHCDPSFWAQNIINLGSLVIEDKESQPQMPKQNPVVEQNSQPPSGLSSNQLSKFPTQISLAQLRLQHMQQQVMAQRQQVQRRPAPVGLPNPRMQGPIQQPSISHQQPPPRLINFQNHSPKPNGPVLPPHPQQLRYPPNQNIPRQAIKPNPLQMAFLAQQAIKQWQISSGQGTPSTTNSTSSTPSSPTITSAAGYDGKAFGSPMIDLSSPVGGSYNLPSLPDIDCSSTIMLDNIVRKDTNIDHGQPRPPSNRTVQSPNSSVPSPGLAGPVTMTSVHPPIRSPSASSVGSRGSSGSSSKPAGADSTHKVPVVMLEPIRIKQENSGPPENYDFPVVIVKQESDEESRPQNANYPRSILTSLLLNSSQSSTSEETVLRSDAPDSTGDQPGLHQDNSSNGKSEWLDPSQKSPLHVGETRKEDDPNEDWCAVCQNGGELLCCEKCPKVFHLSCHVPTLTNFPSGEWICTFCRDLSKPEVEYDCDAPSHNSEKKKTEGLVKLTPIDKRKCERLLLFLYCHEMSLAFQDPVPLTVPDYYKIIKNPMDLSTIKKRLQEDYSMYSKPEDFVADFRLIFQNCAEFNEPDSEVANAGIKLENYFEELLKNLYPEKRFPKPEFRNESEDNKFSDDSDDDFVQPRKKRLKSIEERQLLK

Compound: C[C@@H]1CN(c2ncc(Cl)c(Nc3ccc4c(c3)n(CCC(C)(C)O)c(=O)n4C)n2)C[C@H](C)C1(F)F
- inhibition [1]: 3.38%
- Tm [2]: 48 °C
- LogFC [3]: 0.0845
- inhibition [4]: 10.3%
- Ki [5]: 1.11 µM
- pKi [5]: 6.01
- LogFC [6]: -0.0222
- Tm [7]: 45 °C
- Tm [8]: 36 °C
- Tm [9]: 36 °C
- Tm (Peregrin (Homo sapiens)): 44 °C
- LogFC [10]: -0.712
- LogFC [11]: 0.111
- Tm [12]: 47 °C
